According to patent US10889812B2, “Short non-coding protein regulatory RNAs (sprRNAs) and methods of use” (University of Maryland, Baltimore, priority 2014, dated 2021):

Tests used:
[1] = tested on: HBE4 cells as well as primary normal human bronchial epithelial (NHBE) cells; experiment: Cell viability and cell growth curve assay (MTT, trypan blue); type: cell-based; settings: compared with cells treated with scrambled DNA oligonucleotides (Scr)
Procedure: We then wanted to determine whether piR-L-163 (SEQ ID NO:282) plays a functional role in human bronchial epithelial cells. We treated HBE4 cells as well as primary normal human bronchial epithelial (NHBE) cells with piR-L-163 complementary DNA oligonucleotides (Ant-163) (SEQ ID NO:496) or RNA oligonucleotides (Ant-163R) (SEQ ID NO:497) in the experiment. […] Cell cycle distributions were measured every 2 hrs. […]
Cell viability and cell growth curve assay were determined by MTT assay and trypan blue exclusion assay, respectively as described previously (Kirino, Y. & Mourelatos, Z. Mouse Piwi-interacting RNAs are 2′-O-methylated at their 3′ termini Nat Struct Mol Biol. 14, 347-348 (2007)). BrieflySpecifically, MTT (5 mg/ml) was added into cells and incubated at culture condition for 3 hours, removed the medium carefully and dissolved formazan in DMSO, assay was used to assess the surviving cells and OD values were measured using Microplate Reader Manager (Bio Rad) at wavelengths of 570/690 nm. […] Unstained viable cells were counted in hemocytometer chamber under microscope. […]

ERM proteins = experiment: Pull down with biotin-conjugated piR-L-163 from HBE4 cell lysates, LC-MS-MS; type: binding, human; settings: vs Scr control RNA
Excerpt: Because of the unexpected cellular localizations of piR-L-163 during cell cycle progression, we suspected that piR-L-163 plays a biological role through interaction with proteins. To identify potential piR-L-163 interacting proteins, biotin-conjugated piR-L-163 RNA oligonucleotides were used as a bait to pull down cellular binding proteins in HBE4 cells.
For IP using piR-L-163, synthesized biotin labeled RNA oligonucleotides (/5′Biosg/[…]-3′) (SEQ ID NO:502) was used and scrambled RNA (/5′Biosg/[…]-3′) (SEQ ID NO:503) used as a control.
Protein extracts from 1×10^7 cells using HKMG lysis buffer (10 mM HEPES pH 7.9, 100 mM KCL, 5 mM MgCl2, 10% glycerol, 1 mM dithiothreitol, 0.1% NP40) with protease and phosphatase inhibitors (Roche) were incubated with 1 μg biotin-labeled RNA for 16 hr at 4° C. with rotation after pre-clearing with streptavidin beads, then coupled to 10 μl 50% of streptavidin agarose beads (Sigma-Aldrich). After incubation, the biotin-labeled oligonucleotide-coupled streptavidin beads were washed four times with HKMG lysis buffer. Samples were denatured in SDS protein loading buffer before running on a SDS-acrylamide gel.
The target band for mass spectrometry was performed. […]
The processed samples were analyzed using a nanoscale reverse-phase liquid chromatography using an Xtreme Simple nanoLC system (CVC/Q24 MicroTech). […]

| Substance | cell viability and proliferation [1] | binding to ERM proteins (pull down) (ERM proteins) |
| --- | --- | --- |
| Ant-163: DNA sequence antisense to piR-L-163, SEQ ID NO:496, 5′-GGTCAGAGAATCAAAGTAACATCATGATAT-3′ (DNA, backbone and methylation of C not given here) | enhanced cell viability and proliferation | – |
| piR-L-163: sprRNA, SEQ ID NO:282; piRNA-L aligned to intron 10 of LAMC2; AUAUCAUGAUGUUACUUUGAUUCUCUGACC with 3′ 2′-O-methylation (listed as RNA, chemistry not fully specified; listed as Homo sapiens) | – | binds to ERM proteins |
